Literature values as cited in patent US20090105346A1, “Novel crystalline forms of armodafinil and preparation thereof” (priority 2007, published 2009).

Conditions: S enantiomer of modafinil compared with R enantiomer; Prisinzano et al., Tetrahedron: Asymmetry (2004)

NC(=O)C[S+]([O-])C(c1ccccc1)c1ccccc1 (single isomer, unassigned) [S enantiomer]
elimination from the body relative to the R enantiomer: three times faster
